System: P. falciparum 3D7 growth, pLDH absorbance
Assay: P. falciparum 3D7 growth inhibition, dose response, strain 3D7 (AID 2305)

SMILES	IC50 [nM]
NC(=O)C1CCN(Cc2ccc(-c3ccc(-c4nc5ccc(C(F)(F)F)cc5[nH]4)cc3)cc2)CC1	680
COc1ccccc1N1CCN(CCCCNC(=O)c2ccc(NC(=O)c3ccc(OC(F)(F)F)cc3)cc2)CC1	660
COc1cc(Cc2cnc(N)nc2N)cc(OC)c1OCCNC(=O)[C@@H](N)CCC(=O)O	840
Cc1c(C(=O)[C@@H]2C[C@H]2CN2CCC(N3CCCC3)CC2)sc2ccccc12	1400
CC(=O)Nc1ccc(C(=O)Nc2cccc(-c3cccc(-c4nc5c(C)cccc5[nH]4)c3)c2)cn1	60
Cc1cccc(C=NNc2cc(C)nc3ccc(F)cc23)n1	1000
COc1ccc(-c2ccc(NC(=O)c3ccc(C#N)cc3)cc2)cc1CN1CCC(O)CC1	580
Cc1ccc(F)c(CN2CCC(N3CC(c4ccccc4)(c4ccccc4)OC3=O)CC2)c1Cl	590
CCOC(=O)c1cn(CC)c2cc(F)c(OC3C[C@@H]4CC[C@@]3(C)C4(C)C)cc2c1=O (stereo not given in full)	930
CN(C)Cc1cccc(-c2ccc(NC(=O)c3ccc4c(=O)n(Cc5ccoc5)cnc4c3)cc2)c1	770
O=C1CCCN1CCCNCc1cccc(-c2cccc(-c3nc4ccc(C(F)(F)F)cc4[nH]3)c2)c1	300
CC(CCCCC(=O)Nc1ccc(C(F)(F)F)cc1)NCC(O)c1cccc(Cl)c1 (stereo not given)	280
COc1ccc(NC(=O)Nc2cccc(-c3cccc(-c4nc5ccccc5[nH]4)c3)c2)cc1	310
COc1ccc2[nH]c(C(=O)Nc3ccc4nc(-c5ccccc5)[nH]c4c3)cc2c1	830
O=C(Nc1ccc(OC2CCN(Cc3ccccc3)C2)c(Cl)c1)c1ccsc1 (stereo not given)	730
Oc1ccc2[nH]c(-c3cccc(F)c3)nc2c1CN1CCC(O)(c2ccccc2)CC1	990
COC(=O)c1sc2ccccc2c1NC(=O)c1ccc(C)c(C)c1	1070
COc1ccc2ncc(Cl)c([C@H](O)CN3CCC(NCc4cc5c(cn4)OCCO5)CC3)c2c1	120
Cc1cc(N2CCCC2)nc(Nc2ccc(NC(=O)c3ccc(Br)o3)cc2)n1	620
CC(C)NC(=O)c1cccc(-c2cccc(OCCN3CCSCC3c3ccccc3)c2)c1 (stereo not given)	1010
O=C(C=Cc1ccc(Cl)c(Cl)c1)NCCCCCN1CCC(CCCNS(=O)(=O)c2ccc(Br)cc2)CC1	1130
COc1ccc(C2c3ccccc3-c3nc(N)nc(N)c3C2C)cc1 (stereo not given)	240
O=C1COC2(CN1C1CCN(Cc3ccc(O)cc3Cl)C1)c1ccccc1-c1ccccc12 (stereo not given)	1330
COc1cc(NC(=O)N2CCOC(CCN3CCC(c4ccccc4)CC3)(c3ccc(Cl)c(Cl)c3)C2)cc(OC)c1 (stereo not given)	290
Cc1ccccc1C1CCN(c2ccc(C(=O)NC3CC3)cn2)CC1	850

SMILES	IC50 [nM]
O=C(CN1CCC(NCc2cnc(-c3ccc(Cl)cc3)[nH]2)CC1)N1CCc2ccccc21	650
Nc1nccc2ccc(-c3ccnc(NCc4cccnc4)n3)cc12	460
COc1ccc(Nc2nc(NC3CCN(Cc4ccccc4)CC3)cc(-c3ccncc3)n2)cc1	990
O=S(=O)(Nc1ccc(CCN2CCC(N3CCCCC3)CC2)cc1)c1ccc(Cl)cc1	1090
Cc1cc(OCCCN2CCN(CCN3CCOCC3)CC2)ccc1NC(=O)COc1ccc(Cl)cc1C(=O)c1cc(Cl)cc(C#N)c1	700
COCCN(C)c1ccc(C(=O)Nc2ccccc2)cc1NS(=O)(=O)Cc1ccccc1	570
COc1cc(F)c2ncc(Cl)c(CCN3CCC(NCc4ccc5c(c4)OCCO5)CC3)c2c1	470
CO/C(=C\C=C\c1cc2cc(Cl)c(Cl)cc2[nH]1)C(=O)N[C@H]1CN2CCC1CC2	1210
COc1ccc2ccccc2c1CNCCCCCCNCc1c(OC)ccc2ccccc12	710
Cc1cc(N[C@@H](CC(C)C)C(=O)Nc2ccccc2)nc(Nc2ccccc2)n1	730
Oc1ccc(CN2CCN(CCOC(c3ccccc3)c3ccc(Cl)cc3)CC2)cc1Cl (stereo not given)	860
Cc1cc(NC(=O)Nc2ccc(C#N)cc2)c2ccccc2n1	570
CN1CCC(NCc2ccc(-c3cccc(-c4nc5ccccc5[nH]4)c3)cc2)CC1	130
COc1ccccc1N1CCN(Cc2c(NC(C)=O)sc(C)c2C)CC1	430
COc1ccc(NC(=O)CSc2nc(-c3ccccc3Cl)ns2)cc1OC	760
CCCc1cn2c3c(cc(C(=O)N[C@@H](Cc4ccccc4)[C@H](O)CNC4CCOCC4)cc13)N(CC)S(=O)(=O)CC2	100
CC(C)C1C(O)=C(c2ccc3ccccc3c2)C(=O)N1CC1CCCCC1 (stereo not given)	1130
O=C(NCC1CCN(Cc2cccc(F)c2)C1)c1cc(-c2cccc(C(F)(F)F)c2)cs1 (stereo not given)	990
COc1ccc(-n2ccnc2SCC(=O)Nc2cccc(C(F)(F)F)c2)c(OC)c1	220
CN1CCOc2ccc(Nc3nnc(-c4cccc(-c5cccnc5)c4)o3)cc2C1	100
Cc1ccc(-c2ccc(Cl)cc2Oc2cnc(N)nc2N)o1	1080
O=S(=O)(Nc1cc2c(cc1O)CCN(C1CCC1)CC2)c1ccc(-c2ccc(F)cc2)cc1	420
CN(C)c1nc(NN=Cc2cc(Cl)ccc2O)nc(Nc2ccc(F)cc2)n1	840
COc1cc(NC(=O)c2sc(-c3ccc(Cl)cc3)cc2Cl)ccc1OCCN1CCCC1	980
N[C@@H](CCNC1CCN(c2cccc(C(F)(F)F)c2)CC1)Cc1ccc(F)c(F)c1	1290

SMILES	IC50 [nM]
CC(Nc1ncc(-c2ccsc2)c(-c2nccs2)n1)c1ccc2c(c1)OCCO2 (stereo not given)	170
CN1CCN(c2nsc3ccc(-c4ccc(NC(=O)Nc5cc(C(F)(F)F)ccc5F)cc4)cc23)CC1	240
O=C(/C=C/c1ccc(Cl)c(Cl)c1)NCCCCN1CCCN(C(=O)Nc2ccc(C(F)(F)F)cc2)CC1	850
CCc1cc(OC)ccc1C1CCN(CCCCNC(=O)c2ccc(NC(=O)c3ccc(Cl)cc3)cc2)CC1	1070
N#Cc1cccc(CN2CCCN(Cc3cccc(C(=O)Nc4ccc(Cl)cc4)c3)CC2)c1	1180
CCCCCCN1CCC(NCc2ccc(C(F)(F)F)cc2)CC1	370
CCCOc1ccc(-c2nonc2NC(=O)c2ccccc2OC)cc1OCCC	860
O=C(C=Cc1cc([N+](=O)[O-])ccc1Cl)N1CCC(CCN2CCC(c3c[nH]c4ccccc34)CC2)CC1	740
COc1cccc(C=Cc2nc(=O)c3ccccc3o2)c1OC	60
COc1c(C2CCN(CCCCNC(=O)c3ccc(-c4ccc(C#N)cc4)nc3)CC2)ccc2c1CCCC2	530
O=C(Nc1ccc(N2CCC(Nc3ccccn3)CC2)cc1)c1cnc(Cl)c(Cl)c1	1190
COc1cc(Cc2cnc(N)nc2N)ccc1OCc1ccc(-c2csnn2)cc1	630
Cn1cc(CN2CCCC(COC(c3ccc(F)cc3)c3ccc(F)cc3)C2)cn1 (stereo not given)	570
FC(F)(F)c1ccc2nccc(NN=Cc3cccnc3)c2c1	630
Cc1cccc(CN2CCC(Oc3ccc(NC(=O)c4cccs4)cc3Cl)CC2)n1	840
O=S(=O)(NCCCN1CCOCC1)c1ccc2nccc(Nc3ccc(Oc4ccccc4)cc3)c2c1	850
Cc1ccccc1OCCCN1CCN(CC(c2ccc(F)cc2)N2CCN(C(C)C)CC2)CC1 (stereo not given)	1410
CC(C)c1ccc(S(=O)(=O)N(c2ccc3c(c2)OCO3)C2CCN(Cc3ccccc3)C2)cc1 (stereo not given)	350
CCCCCn1c(Sc2ccc(C#N)c([N+](=O)[O-])c2)nnc1-c1cccs1	780
C=C[C@H]1CN2CC[C@H]1C[C@H]2[C@H](O)c1ccnc2ccccc12	170
COc1ccc(C=NNc2cc(C)nc3ccccc23)cc1OC	860
FC(F)(F)c1ccc(Nc2nnnc3ccccc23)cc1	690
CC(C)c1sc(N2CCN(C)CC2)nc1C(=O)Nc1ccc(F)cc1C(F)(F)F	190
O=C(C=Cc1ccc(Cl)c(Cl)c1)NCCCCCN1CCC(CCNC(=O)/C=C/c2ccccc2)CC1	780
Nc1ccnc(N2CCC(CCOc3cc(C(F)(F)F)nc4c(C(F)(F)F)cccc34)CC2)c1	790

SMILES	IC50 [nM]
O=C1CSc2ccc(CNC3CCN(CCc4c(F)cnc5ccc(F)cc45)CC3)nc2N1	520
N#Cc1ccc(CN2CCC(Oc3ccc(NC(=O)c4ccco4)cc3Cl)C2)cc1 (stereo not given)	330
CC(=O)c1ccccc1C(=O)N1CCOc2ccc(C(O)C(c3ccccc3)c3ccccc3)cc2C1 (stereo not given)	900
CC(C)c1ccc(C2CCN(CCCCNC(=O)c3ccc(NC(=O)c4ccc(C(F)(F)F)cc4)cc3)CC2)c(O)c1	580
Cc1cc(C=C(P(=O)(OC(C)C)OC(C)C)P(=O)(OC(C)C)OC(C)C)c2ccccc2c1O	1080
CN(C)Cc1ccc(-c2cccc(NC(=O)c3cccc(Cl)c3)c2)cc1	690
COc1ccc(/C=C/C(=O)Nc2ccc(-c3ccncc3)cc2)cc1CCCN(C)C	750
Fc1ccc2nc(-c3ccc(-c4ccc(CN5CCN(CCN6CCOCC6)CC5)cc4)s3)[nH]c2c1	150
CCc1cn2c3c(cc(C(=O)N[C@@H](Cc4ccccc4)[C@H](O)CNCc4ccccc4)cc13)N(C)S(=O)(=O)CC2	660
Cc1ncccc1-c1cccc2c(NC(=O)Nc3ccc4nccc(N5CCN(C)CC5)c4c3)cccc12	630
CCCNCc1ccc(-c2ccc(CN(Cc3ccc4c(c3)OCO4)C(=O)[C@H]3CCCO3)cc2)nc1	810
CC(C)Cc1cnc2nc(N)nc(N)c2c1	490
Cc1cnc(NC(=O)c2cn(-c3ccccc3)nc2-c2cccs2)s1	950
CCCc1cc(Cc2cnc(N)nc2N)cc(CC)c1OC	820
CC(C)n1c(CC2CCN(CC3CCN(C(=O)/C=C/c4ccc(Cl)c(Cl)c4)CC3)CC2)nc2ccccc21	610
Cc1cc(N2CCCC2)nc(Nc2ccc(NC(=O)C(C)(C)C)cc2)n1	1070
COc1ccc2nccc([C@@H](O)CN3CCC(NC(=O)c4ccc5cc[nH]c5c4)CC3)c2c1	970
O=C(/C=C/c1ccc(Cl)c(Cl)c1)NCCCCCCN1CCCN(C(=O)Nc2cccc(Cl)c2)CC1	860
CCCCCCCCN1CCN(CCCCCCNc2c3ccccc3nc3ccccc23)CC1	160
Nc1ncc(-c2ccc(NC(=O)Nc3cc(C(F)(F)F)ccc3F)cc2)c(N)n1	720
Cc1nn(-c2cccc(C(F)(F)F)c2)c2sc(C(=O)NC3CCN(C(C)C)CC3)cc12	900
COc1cc2nc(C)nc(Nc3cccc(Br)c3)c2cc1OC	360
CNC(=O)c1ccccc1Nc1cc(Nc2cc(OC)ccn2)ncc1Cl	930
COc1cccc(-c2nn(C)c3sc(C(=O)NCCN(C)Cc4ccccc4)cc23)c1	810
O=C(NCc1ccc(C(=O)NCc2cccc3ccccc23)cc1)c1ccc(O)c(-c2ccc(Cl)c(Cl)c2)c1	810
